Source: patent EP0694299B1, “The use of( a) bicycloheptane derivative(s)” (EGIS GYOGYSZERGYAR RT., priority 1994, dated 1996)
Read-outs that look alike come from different tables or passages of the source.

System: cholecyst contraction induced by yolk
Assay: Inhibition of yolk-induced gallbladder (cholecyst) mass decrease in mice
Type: in vivo, male mice from the strain NMRI
Conditions: Mus musculus, po
Experimental: The effect of the bicycloheptane derivatives used according to the invention is verified on the following test. Known spasmolytics 1-[3',4'-di-(ethoxy)-benzyliden]-6,7-di-- [ethoxy] -1,2,3,4-terra-[hydro] -isoquinoline {drotaverine} and 1- [3',4'-di-(methoxy)-benzyl]-6,7-di-[methoxy] -isoquinoline {papaverine} are employed for comparison. (These spasmolytics are most often used in the therapeutical practice).
The tests were performed on male mice from the strain NMRI in groups consisting of 8 to 12 animals. At the beginning of the test, the animals were weighing 20 to 30 g.
The animals were starved for 24 hours before beginning the first treatment, however, they were allowed to consume water ad libitum. The compounds to be tested and the carrier (0.4% solution of methyl cellulose) were administered perorally in a volume of 10 ml/kg.
45 minutes after this treatment, an emulsion of 30% of yolk in 0.4% methyl cellulose solution was administered perorally. Each mouse consumed 0.5 ml of the emulsion. The animals of the control group consumed 0.5 ml of the carrier i.e. 0.4% methyl cellulose solution.
After 15 minutes, cervicalis dislocatio was employed, the gallbladders were removed and weighed, one by one. The effect of the compounds tested was given as the inhibition of the cholecyst mass decrease induced by yolk, in percentage. […] Table

[1] = dose causing 50% inhibition of the cholecyst mass decrease induced by yolk, p.o. 45 min before 30% yolk emulsion, gallbladders weighed 15 min later, linear regression, read-out: ID50 p.o.

| SMILES | ED50 [1] | ED50 (read-out: ID50 p.o. in mg/kg) |
| --- | --- | --- |
| CN(C)CCO[C@@]1(c2ccccc2)C[C@@H]2CC[C@@]1(C)C2(C)C.O=C(O)/C=C/C(=O)O [(1S,2R,4S)-(+)-2-[Phenyl] -2-[2'-(dimethylamino)-ethoxy]-1,7,7-tri-[methyl] -bicyclo[2.2.1]heptane (E) -2-butenedioate] | > 100 mg/kg |  |
| COc1ccc(Cc2nccc3cc(OC)c(OC)cc23)cc1OC [Papaverine, 1-[3',4'-di-(Methoxy)-benzyl]-6,7-di-[methoxy]-isoquinoline, reference compound] |  | > 100 mg/kg |
| CC1(C)[C@@H]2CC[C@@]1(C)[C@@](OCC[N+](C)(C)[O-])(c1ccccc1)C2 [(1R,2S,4R)-(-)-2-[Phenyl]-2-[2'-(dimethylamino)-ethoxy]-1,7,7-tri-[methyl]-bicyclo[2.2.1]heptane-N-oxide (E)-2-butenedioate] | > 100 mg/kg |  |
| CCOc1ccc(/C=C2\NCCc3cc(OCC)c(OCC)cc32)cc1OCC [Drotaverine, 1-[3',4'-di-(Ethoxy)-benzyliden]-6,7-di-[ethaxy]-1,2,3,4-tetra-[hydro]-isoquinoline, reference compound] | > 100 mg/kg |  |
| CN(C)CCO[C@]1(c2ccccc2)C[C@H]2CC[C@]1(C)C2(C)C.O=C(O)/C=C/C(=O)O [(1R,2S,4R)-(-)-2-[Phenyl]-2-[2'-(dimethylamino)-ethoxy]-1,7,7-tri-[methyl] -bicyclo[2.2.1]heptane (E)-2-butenedioate] | 7 mg/kg |  |
